Assay results as given in patent publication US20260250320A1, “LIPIDATED PEPTIDE INHIBITORS OF INTERLEUKIN-23 RECEPTOR” (Janssen Pharmaceutica NV, priority 2023, published 2026).
*1 amine or outer side, *2 acyl side, *3 side chain or, on linkers, in order; H or OH if unused. Where a SMILES comes first, the peptide text is derived from it. Bridges are numbered along the chain shown (N, C = ends). Side-chain parts run from the residue outwards. [ ]: non-standard residue; d: D form. The star is where a group is joined. ξ: configuration not given here. X36 = C[N+](C)(C)CCOCCOCCC(=O)C[C@H](CCCCCC(=O)COCCOCCNC(=O)COCCOCCNC(=O)CC[C@H](NC(=O)CCCCCCCCCCCCCCCCC(=O)O)C(=O)O)C(=O)*; Biotin = O=C1N[C@H]2[C@H](CS[C@H]2CCCCC(=O)*)N1; Trp(7-Me) = Cc1cccc2c(C[C@H](N)C(=O)O)c[nH]c12; C18 diacid = O=C(O)CCCCCCCCCCCCCCCCC(=O)*; γGlu = O=C(O)[C@H](CCC(=O)[*:2])N[*:1]; 2Nal = N[C@@H](Cc1ccc2ccccc2c1)C(=O)O; AEF = NCCOc1ccc(C[C@H](N)C(=O)O)cc1; X2 = C[N+](C)(C)C[C@@H](CC(=O)O)N*; αMeT = C[C@@H](O)[C@](C)(N)C(=O)O; 2Pal = N[C@@H](Cc1ccccn1)C(=O)O; 3Pal = N[C@@H](Cc1cccnc1)C(=O)O; Lys(Me) = CNCCCC[C@H](N)C(=O)O; PEG4 = NCCOCCOCCOCCOCCC(=O)O; Pen = CC(C)(S)[C@H](N)C(=O)O; Suc = O=C(CCC(=O)[*:2])[*:1]; Thp = NC1(C(=O)O)CCOCC1; X1 = C[N+](C)(C)CCCCC*; ξN = NC(=O)CC(N)C(=O)O; AEEA = NCCOCCOCC(=O)O; Sar = CNCC(=O)O

How the values were obtained:
IL-23R = target: T1, IL-23R (Homo sapiens, UniProt Q5VWK5); assay: IL23R Reporter Assay; assay type: cell-based; details: HEK293 cells containing IL-23R, IL-12Rβ1 and STAT-inducible firefly luciferase reporter; 10 ng/mL IL-23 (EC90); 5 h
T1 construct: HEK293 cells containing IL-23R, IL-12Rβ1 and a firefly luciferase reporter gene driven by a STAT-inducible promoter (Promega); host or cells: HEK293
T1 sequence (Q5VWK5 24-629): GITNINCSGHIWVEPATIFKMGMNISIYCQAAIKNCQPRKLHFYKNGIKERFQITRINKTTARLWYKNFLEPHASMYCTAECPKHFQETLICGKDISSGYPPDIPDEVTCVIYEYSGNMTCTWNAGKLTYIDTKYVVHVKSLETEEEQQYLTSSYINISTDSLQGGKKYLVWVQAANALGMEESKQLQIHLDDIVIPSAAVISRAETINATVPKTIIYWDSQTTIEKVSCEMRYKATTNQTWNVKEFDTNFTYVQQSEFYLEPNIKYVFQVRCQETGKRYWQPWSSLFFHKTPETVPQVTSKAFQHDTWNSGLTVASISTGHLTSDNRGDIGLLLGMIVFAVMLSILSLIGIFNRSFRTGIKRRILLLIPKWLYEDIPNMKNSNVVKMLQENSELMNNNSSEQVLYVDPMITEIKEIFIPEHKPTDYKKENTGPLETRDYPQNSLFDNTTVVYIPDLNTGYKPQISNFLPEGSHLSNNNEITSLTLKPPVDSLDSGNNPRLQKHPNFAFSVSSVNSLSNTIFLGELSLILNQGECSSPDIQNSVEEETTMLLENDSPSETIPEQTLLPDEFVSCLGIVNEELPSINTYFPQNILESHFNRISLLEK
Outline: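 IC50 values were fitted with a 4-parameter Hill equation to luciferase signal, scaled between IL-23-only wells (0% inhibition) and 30 μM reference inhibitor (100%). The readout was a STAT-inducible reporter in IL-23R/IL-12Rβ1 HEK293 cells, stimulated with added 10 ng/mL IL-23 (EC90) for 5 h at 37° C and developed with BioGlo.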

[1] = test system: IL-23-stimulated phosphorylated STAT3 in peripheral blood mononuclear cells (PBMCs); assay: PBMC pSTAT3 Assay; assay type: cell-based; details: PBMCs from healthy donors; 30 min preincubation with peptide; IL-23 5 ng/mL for 30 min; phospho-STAT3 by MSD
Outline: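 Phospho-STAT3 quantified by Meso Scale assay in lysates of PBMCs exposed to IL-23 (5 ng/mL, 30 min, 37 °C) after 30 min peptide pretreatment. Cells were cryopreserved donor PBMCs activated 4 days with anti-CD3 plus IL-1β (100 ng/mL) and starved ~4 h; IC50 reported.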

CC(=O)NCCCC[C@H](NC(=O)C1(NC(=O)[C@H](Cc2ccc3ccccc3c2)NC(=O)[C@H](Cc2ccc(OCCN)cc2)NC(=O)[C@@H](NC(=O)[C@@H](N)CCCCNC(C)=O)C(C)(C)SSC(C)(C)[C@H](NC(C)=O)C(=O)N[C@@H](CC(N)=O)C(=O)N[C@H](C(=O)N[C@H](Cc2c[nH]c3c(C)cccc23)C(C)=O)[C@@H](C)O)CCOCC1)C(=O)N[C@@H](CC(N)=O)C(=O)N[C@@H](Cc1cccnc1)C(=O)N(C)CC(=O)N[C@@H](CCCCNC(=O)COCCOCCN(C)C(=O)COCCOCCN(C)C(=O)CC[C@@H](C(=O)O)N(C)C(=O)CCCCCCCCCCCCCCCCCc1nnn[nH]1)C(N)=O [compound 2, MeCO-Pen(3)-N-T-7MeW-K(Ac)-Pen(3)-AEF-2Nal-THP-K(Ac)-N-3Pya-Sar-K(PEG2NMePEG2NMegENMeC18Tetrazole)-CONH2] gave an IC50 (IL-23R) of 50 to 500 nM and an IC50 [1] of under 0.5 nM.

CC(=O)N(C)CCCC[C@@H]1NC(=O)[C@H](Cc2c[nH]c3c(C)cccc23)NC(=O)[C@H]([C@@H](C)O)NC(=O)[C@H](CC(=O)N(C)C)NC(=O)[C@@H](NC(=O)[C@@H](CCCCCC(=O)COCCOCCNC(=O)COCCOCCNC(=O)CC[C@H](NC(=O)CCCCCCCCCCCCCCCCC(=O)O)C(=O)O)CC(=O)CCOCCOCC[N+](C)(C)C)C(C)(C)SSC(C)(C)[C@@H](C(=O)N[C@@H](Cc2ccc(OCCCCC[N+](C)(C)C)cc2)C(=O)N[C@@H](Cc2ccc3ccccc3c2)C(=O)NC2(C(=O)N[C@@H](CCCCN(C)C(C)=O)C(=O)N[C@@H](CC(N)=O)C(=O)N[C@@H](Cc3cccnc3)C(=O)N(C)CC(=O)N(C)C)CCOCC2)NC1=O [compound 131, cPEG3aCO-k(PEG2PEG2gEC18OH)-Pen(3)-N(N(Me)2)-T-7MeW-K(NMeAc)-Pen(3)-TMAPF-2Nal-THP-K(NMeAc)-N-3Pya-Sar-CON(Me)2] (X36-[Pen]D(NMe2)T[Trp(7-Me)][Lys(Me)](Ac)[Pen]Y(X1)[2Nal][Thp][Lys(Me)](Ac)N[3Pal][Sar]-NMe2; disulfide 1-6) showed an IC50 (IL-23R) of under 50 nM and an IC50 [1] of under 0.5 nM.

In the case of CC(=O)NCCCC[C@@H]1NC(=O)[C@H](Cc2c[nH]c3c(C)cccc23)NC(=O)[C@H]([C@@H](C)O)NC(=O)[C@H](CC(N)=O)NC(=O)[C@@H](NC(=O)[C@@H](CCCNC(=N)N)NC(=O)CCC(=O)N[C@H](CC(=O)O)C[N+](C)(C)C)C(C)(C)SSC(C)(C)[C@@H](C(=O)N[C@@H](Cc2ccc(OCCN)cc2)C(=O)N[C@@H](Cc2ccc3ccccc3c2)C(=O)NC2(C(=O)N[C@@H](CCCCNC(=O)COCCOCCNC(=O)COCCOCCNC(=O)CC[C@H](NC(=O)CCCCCCCCCCCCCCCCC(=O)O)C(=O)O)C(=O)N[C@@H](CC(N)=O)C(=O)N[C@@H](Cc3ccccn3)C(=O)N(C)CC(N)=O)CCOCC2)NC1=O [compound 49, succiniccarn-r-Pen(3)-N-T-7MeW-K(Ac)-Pen(3)-AEF-2Nal-THP-K(PEG2PEG2gEC18OH)-N-3Pya-Sar-CONH2] ({X2-Suc}-[dR][Pen]NT[Trp(7-Me)]K(Ac)[Pen][AEF][2Nal][Thp]K([AEEA-AEEA-γGlu-C18 diacid])N[2Pal][Sar]-NH2; disulfide 2-7), the IC50 (IL-23R) is reported as 50 to 500 nM and the IC50 [1] is reported as under 0.5 nM.

CC(=O)NCCCC[C@@H]1NC(=O)[C@H](Cc2c[nH]c3c(C)cccc23)NC(=O)[C@](C)([C@@H](C)O)NC(=O)C(CC(N)=O)NC(=O)[C@@H](NC(=O)[C@@H](CCCNC(=N)N)NC(C)=O)C(C)(C)SSC(C)(C)[C@@H](C(=O)N[C@@H](Cc2ccc(OCCN)cc2)C(=O)N[C@@H](Cc2ccc3ccccc3c2)C(=O)NC2(C(=O)N[C@@H](CCCCNC(=O)CCOCCOCCOCCOCCNC(=O)CCCC[C@@H]3SC[C@@H]4NC(=O)N[C@@H]43)C(=O)N[C@@H](CC(N)=O)C(=O)N[C@@H](Cc3cccnc3)C(=O)N(C)CC(=O)N[C@@H](CCCCNC(=O)COCCOCCNC(=O)COCCOCCNC(=O)CC[C@H](NC(=O)CCCCCCCCCCCCCCCCC(=O)O)C(=O)O)C(N)=O)CCOCC2)NC1=O (stereo partly drawn) [compound 56, MeCO-r-Pen(3)-N-T-7MeW-K(Ac)-Pen(3)-AEF-2Nal-THP-K(BiotinPEG4)-N-3Pya-Sar-K(PEG2PEG2gEC18OH)-CONH2] (Ac-[dR][Pen][ξN][αMeT][Trp(7-Me)]K(Ac)[Pen][AEF][2Nal][Thp]K([PEG4-Biotin])N[3Pal][Sar]K([AEEA-AEEA-γGlu-C18 diacid])-NH2; disulfide 2-7) gave an IC50 (IL-23R) of under 50 nM and an IC50 [1] of under 0.5 nM.
